The values below come from patent US7968606B2 (Takasago International Corporation, priority 2004, dated 2011).

This experiment concerns Japanese women. The experiment in a line: Contingent negative variation (CNV) amplitude measurement, method of Torii. The format is in vivo, human. The settings on record: used in perfume compositions in an amount of less than 0.5% by weight, preferably 0.01% to 0.4% by weight. From the text: (CNV) according to the method of Torii [Proceedings of the 19th Japanese Symposium on Taste and Smell, 65 (1985)], which is also described in detail in U.S. Pat. No. 6,268,333.
The contingent negative variations are small variations in cerebral potential related to psychological processes, such as attention, waiting, anticipation etc. as well as being related to changes in the state of consciousness.
According to this method, a luminous signal is emitted approximately 2 seconds after the audible signal, and the subject must switch off the luminous signal by pressing on the button as soon as the luminous signal is recognised.
When carrying out these experiments, a sample to be tested (perfume composition) or a reference sample (with no smell) is placed around 10 centimeters from the nose of the subject taking part in these experiments in such a way as to ensure that the compound is recognised at all times via the said subject's respiration. […]
The contingent negative variations measured during an early period of time going from 400 msec to 1000 msec after the audible signal and the amplitude of these variations is expressed with respect to a reference sample to which a value of 100% is given. […]
The amplitude of the contingent negative variations was determined for each woman taking part in the test during the early period going from 400 msec to 1000 msec after the audible signal.

With `COc1cc(OC)cc(OC)c1` [1,3,5-trimethoxybenzene], the “sedative effect by measurement of contingent negative variations” value is recorded as “sedative effect”.
